In PMC6177136, “Hybrid topoisomerase I and HDAC inhibitors as dual action anticancer agents” (PLoS ONE, 2018):
Read-outs that look alike come from different tables or passages of the source.

Key:
Format in all cases: cell-based, Human
KM-H2 = experiment: Cytotoxicity assay (MTT, 72 h) KM-H2; conditions: 72 h, MTT assay; read-out: IC50 ± SD KM-H2
NCI-H460 = experiment: Cytotoxicity assay (SRB, 72 h) NCI-H460; conditions: 72 h, SRB assay, read-out: IC50 ± SD NCI-H460
Capan 1 = experiment: Cytotoxicity assay (SRB, 72 h) Capan 1
A2780-Dx = experiment: Cytotoxicity assay (SRB, 72 h) A2780-Dx; conditions: for IC50: 72 h, SRB assay, multidrug-resistant ovarian carcinoma, read-out: IC50 ± SD A2780-Dx; for RI (Resistance Index): A2780-Dx versus A2780
U-2932 = experiment: Cytotoxicity assay (MTT, 72 h) U-2932; conditions: read-out: IC50 ± SD U-2932
HepG2 = experiment: Cytotoxicity assay (SRB, 72 h) HepG2
OCI-LY3 = experiment: Cytotoxicity assay (MTT, 72 h) OCI-LY3; conditions: 72 h, MTT assay; read-out: IC50 ± SD OCI-LY3
Procedure: (§1) Human tumor cells were seeded in 96-well cell culture plastic plates, allowed to attach, and exposed to scalar concentrations of the test compounds.

HT29 = experiment: Cytotoxicity assay (SRB, 72 h) HT29
HeLa = experiment: Cytotoxicity assay (SRB, 72 h) HeLa; conditions: read-out: IC50 ± SD HeLa
MINO = experiment: Cytotoxicity assay (MTT, 72 h) MINO; conditions: 72 h, MTT assay; read-out: IC50 ± SD MINO
DU145 = experiment: Cytotoxicity assay (SRB, 72 h) DU145
JECO-1 = experiment: Cytotoxicity assay (MTT, 72 h) JECO-1; conditions: 72 h, MTT assay; read-out: IC50 ± SD JECO-1
L-428 = experiment: Cytotoxicity assay (MTT, 72 h) L-428; conditions: 72 h, MTT assay; read-out: IC50 ± SD L-428
Procedure: as §1

A431 = experiment: Cytotoxicity assay (SRB, 72 h) A431
DG-75 = experiment: Cytotoxicity assay (MTT, 72 h) DG-75
MAVER-2 = experiment: Cytotoxicity assay (MTT, 72 h) MAVER-2; conditions: read-out: IC50 ± SD MAVER-2
A2780 = experiment: Cytotoxicity assay (SRB, 72 h) A2780
NB4 = experiment: Cytotoxicity assay (MTT, 72 h) NB4; conditions: read-out: IC50 ± SD NB4
[1] = Homo sapiens, CAPAN-1, read-out: IC50 ± SD Capan 1

CCc1c2c(nc3ccc(OCCCCCCC(=O)NO)cc13)-c1cc3c(c(=O)n1C2)COC(=O)[C@]3(O)CC [CY700]
IC50 (KM-H2): 1500 ± 500 nM | IC50 (NCI-H460): 360 ± 20 nM | IC50 (Capan 1; read-out: IC50 ± SD Capan 1): 960 ± 80 nM | IC50 (A2780-Dx): 5900 ± 1000 nM | RI (Resistance Index) (A2780-Dx): 2.4 | IC50 (U-2932): 900 ± 300 nM | IC50 (HepG2; read-out: IC50 ± SD HepG2): 1500 ± 400 nM | IC50 (OCI-LY3): 340 ± 40 nM | IC50 (HT29; read-out: IC50 ± SD HT29): 1200 ± 200 nM | IC50 (HeLa): 3300 ± 900 nM | IC50 (MINO): 370 ± 100 nM | IC50 (DU145; read-out: IC50 ± SD DU145): 870 ± 40 nM | IC50 (JECO-1): 1000 ± 400 nM | IC50 (L-428): 1700 ± 200 nM | IC50 (A431; read-out: IC50 ± SD A431): 790 ± 100 nM | IC50 (DG-75; 72 h, MTT assay, read-out: IC50 ± SD DG-75): > 10000 nM | percentage in parentheses after IC50 >10, DG-75 (DG-75; meaning not defined in the paper, given beside >10 μM): 18% | IC50 (MAVER-2): 400 ± 80 nM | IC50 (A2780; read-out: IC50 ± SD A2780): 2500 ± 300 nM | IC50 (NB4): 240 ± 60 nM

CC[C@@]1(O)C(=O)OCc2c1cc1n(c2=O)Cc2c-1nc1ccccc1c2C=NOCC(=O)NO [Compound 3a, Camptothecin-7-yl(methyleneaminooxy)-acetic acid hydroxyamide]
IC50 (NCI-H460; Homo sapiens, NCI-H460): 360 ± 100 nM | IC50 (Capan 1; [1]): 50 ± 6 nM

CC[C@@]1(O)C(=O)OCc2c1cc1n(c2=O)Cc2c-1nc1ccccc1c2C=NOCCCCCCC(=O)NO [Compound 3c, 7-(camptothecin-7-ylmethyleneaminooxy)-heptanoic acid hydroxyamide]
IC50 (NCI-H460; Homo sapiens, NCI-H460): 198 ± 180 nM | IC50 (Capan 1; [1]): 43 ± 3 nM | RI (Resistance Index) (A2780-Dx): 1.7 | IC50 (A2780-Dx; Homo sapiens, A2780/DX): 65 ± 10 nM | IC50 (HepG2; Homo sapiens, HepG2, read-out: IC50 ± SD HepG2): 680 ± 200 nM | IC50 (HT29; Homo sapiens, HT-29, read-out: IC50 ± SD HT29): 45 ± 10 nM | IC50 (HeLa; Homo sapiens, HeLa): 2400 ± 500 nM | IC50 (DU145; Homo sapiens, DU-145, read-out: IC50 ± SD DU145): 29 ± 1 nM | IC50 (A431; Homo sapiens, A-431, read-out: IC50 ± SD A431): 26 ± 1 nM | IC50 (A2780; Homo sapiens, A2780, read-out: IC50 ± SD A2780): 38 ± 8 nM
